Source: patent US4774320A, “Synthetic peptide with human interleukin 1 activity” (Sclavo S.p.A., priority 1986, dated 1988)

Experiments:
CTLL-2 cells = assay: Substances tested directly on IL-2-dependent CTLL cells (no splenocyte supernatant; upper part of Table 2); format: cell-based; settings: dilution 1/10
[1] = tested on: T cells from the spleen of C3H/HeJ mice; assay: Induction of IL-2 production in ConA-activated spleen T cells; supernatants tested for growth of IL-2-dependent CTLL-2 cells; format: cell-based; settings: supernatants of splenocytes incubated 48 hours with ConA and substance, dilution 1/10
Method: For the purpose of establishing whether the activity of costimulation of the murine thymocytes on the part of the synthetic peptide is due, as in the case of human IL-1, to the induction of the production of IL-2, the following test was carried out.
T cells from the spleen of C3H/HeJ mice, separated on nylon wool as reported by Julius, M. H. et al., Eur. J. Immunol. 3, 645 (1973), are incubated in duplicate for 48 hours at 37° C. in 1 ml of RPMI 1640 medium (GIBCO), supplemented by N-2-hydroxyethylpiperazine N'-2-ethanesulphonic acid (HEPES), L-glutamine, gentamycin, 10% bovine foetal serum and 2-mercaptoethanol (2.5×10^-5 M), in the presence of graduated concentrations (840-420-210 μg/ml) of the synthetic peptide 163-171 and of purified human IL-1B as standard, with the addition of concanavalin A (ConA) as costimulant.
At the end of the period of incubation, the supernatant is separated from the culture and a determination is made of its capacity to promote the growth of CTLL-2 cells dependent upon IL-2 according to the method reported by Gillis S. M. et al. (J. Immunol. 120, 2027 (1978)).
The mitogenic activity of IL-2 on CTLL-2 cells is measured, either by determining the number of cells after 24 hours of culturing or by means of the assessment of the incorporation of tritiated thymidine in the cells. […]

Human IL-1β: purified human IL-1B standard (Genzyme Boston Mass.)
IL-2 (mU/ml) (CTLL-2 cells): 1 mU/ml | Stimulation index + SE of CTLL cells (CTLL-2 cells): 0.93 ± 0.02 | IL-2 (mU/ml) [1]: 38 mU/ml | Stimulation index + SE of CTLL cells [1]: 15.27 ± 0.88
